From the supplement of paper PMC7806825

test system: McpC ligand-binding domain (Salmonella Typhimurium SL1344); assay: protein melting temperature (Tm) in presence of compound (degrees C); higher = more thermal stabilisation (possible ligand binding); conditions: Biolog plate: PM01; compound stock concentration: 10-20 mM, 2 uL in 10 uL reaction

Compound	protein melting temperature
OC[C@H]1O[C@@H](O[C@@H]2[C@@H](CO)OC(O)(CO)[C@H]2O)[C@H](O)[C@@H](O)[C@H]1O (mixture of isomers) [Lactulose]	44.9
O=C(O)CC(O)C(=O)O (racemic) [DL-Malic acid]	44.5
O=P(O)(O)OC[C@H](O)CO (racemic) [DL-a-Glycerol Phosphate]	44.6
CC(O)CO (stereo not given) [1,2-Propanediol]	44.8
NCCO [2-Aminoethanol]	44.3
Nc1ncnc2c1ncn2[C@H]1C[C@H](O)[C@@H](CO)O1 [2`-Deoxyadenosine]	43.9
CC(=O)CC(=O)O [Acetoacetic acid]	44.6
Nc1ncnc2c1ncn2[C@@H]1O[C@H](CO)[C@@H](O)[C@H]1O [Adenosine]	43.8
OCC(O)C(O)C(O)CO (stereo not given) [Adonitol]	44.8
C[C@H](N)C(=O)NCC(=O)O [Ala-Gly]	44.9
O=C(O)CC(Br)C(=O)O (stereo not given) [Bromosuccinic acid]	44.8
C[C@@H](N)C(=O)O [D-Alanine]	43.9
N[C@H](CC(=O)O)C(=O)O [D-Aspartic acid]	44.2
O=C(CO)[C@@H](O)[C@H](O)[C@H](O)CO [D-Fructose]	44.3
OC[C@H]1OC(O)[C@H](O)[C@@H](O)[C@H]1O (stereo partly drawn) [D-Galactose]	44.8
O=C(O)[C@H]1OC(O)[C@H](O)[C@@H](O)[C@H]1O (stereo partly drawn) [D-Galacturonic acid]	44.4
O=C[C@H](O)[C@@H](O)[C@H](O)[C@H](O)COP(=O)(O)O [D-Glucose-6-Phosphate]	44.6
O=C(O)C[C@@H](O)C(=O)O [D-Malic acid]	43.6
OC[C@@H](O)[C@@H](O)[C@H](O)[C@H](O)CO [D-Mannitol]	44.7

same assay, conditions: Biolog plate: PM02A; compound stock concentration: 10-20 mM, 2 uL in 10 uL reaction

Compound	protein melting temperature
C[N+](C)(C)CC(O)CC(=O)[O-] (racemic) [D,L-Carnitine]	44.4
NCC(O)c1ccc(O)cc1 (racemic) [D,L-Octopamine]	43.9
CC(O)C(C)O (stereo not given) [2,3-Butanediol]	44.2
CC(=O)C(C)=O [2,3-Butanedione]	43.9
O=C(O)c1ccccc1O [2-Hydroxybenzoic acid]	45.4
CC(=O)C(C)O (stereo not given) [3-Hydroxy-2-butanone]	43.5
O=C[C@@H](O)[C@H](O[C@@H]1O[C@H](CO)[C@H](O)[C@H](O)[C@H]1O)[C@H](O)CO [3-O-b-D-Galactopyranosyl-D-Arabinose]	44.5
O=C(O)c1ccc(O)cc1 [4-Hydroxybenzoic acid]	43.3
O=C(CO)[C@@H](O)[C@H](O)[C@@H](O)C(=O)O [5-Keto-D-Gluconic acid]	43.9
N#C[C@H](O[C@@H]1O[C@H](CO[C@@H]2O[C@H](CO)[C@@H](O)[C@H](O)[C@H]2O)[C@@H](O)[C@H](O)[C@H]1O)c1ccccc1 [Amygdalin]	44.3
OC[C@H]1O[C@@H](Oc2ccc(O)cc2)[C@H](O)[C@@H](O)[C@@H]1O [Arbutin]	43.7
CCCCCCCCCC(=O)O [Capric acid]	42.4
CCCCCC(=O)O [Caproic acid]	43.3
C/C(=C/C(=O)O)C(=O)O [Citraconic acid]	43.7
CC(O)(CC(=O)O)C(=O)O (stereo not given) [Citramalic acid]	44.1
OC1OC[C@@H](O)[C@@H](O)[C@@H]1O (stereo partly drawn) [D-Arabinose]	43.6
OC[C@@H](O)C(O)[C@H](O)CO [D-Arabitol]	44.4
C[C@@H](O)[C@H](O)[C@H](O)[C@@H](O)C=O [D-Fucose]	43.3
COC(=O)[C@@H](C)O [D-Lactic acid Methyl Ester]	44.4
OC[C@@H](O)[C@@H](O[C@@H]1O[C@H](CO)[C@H](O)[C@H](O)[C@H]1O)[C@H](O)[C@@H](O)CO [D-Lactitol]	44.7

same assay, conditions: Biolog plate: PM03B; compound stock concentration: 10-20 mM, 2 uL in 10 uL reaction

Compound	protein melting temperature
CC(O)C(N)=O (racemic) [DL-Lactamide]	45.6
CCC(N)C(=O)O (racemic) [DL-a-Amino-N-Butyric acid]	44.3
Nc1[nH]cnc2ncnc1-2 [Adenine]	45.2
Nc1ncnc2c1ncn2[C@@H]1O[C@H](CO)[C@@H](O)[C@H]1O [Adenosine]	45.4
NCCCCN=C(N)N [Agmatine]	44.1
C[C@H](N)C(=O)N[C@@H](CC(=O)O)C(=O)O [Ala-Asp]	45
C[C@H](N)C(=O)N[C@@H](CCC(N)=O)C(=O)O [Ala-Gln]	45.1
C[C@H](N)C(=O)N[C@@H](CCC(=O)O)C(=O)O [Ala-Glu]	45.2
C[C@H](N)C(=O)NCC(=O)O [Ala-Gly]	45.2
C[C@H](N)C(=O)N[C@@H](Cc1cnc[nH]1)C(=O)O [Ala-His]	45.3
C[C@H](N)C(=O)N[C@H](C(=O)O)[C@@H](C)O [Ala-Thr]	45.1
NC(=O)NC1NC(=O)NC1=O (stereo not given) [Allantoin]	44.2
O=C1NC(=O)C(=O)C(=O)N1 [Alloxan]	44.3
NC(=O)NC(N)=O [Biuret]	44.2
Nc1ccn([C@@H]2O[C@H](CO)[C@@H](O)[C@H]2O)c(=O)n1 [Cytidine]	44.7
Nc1cc[nH]c(=O)n1 [Cytosine]	45.2
C[C@@H](N)C(=O)O [D-Alanine]	44.9
NC(=O)C[C@@H](N)C(=O)O [D-Asparagine]	44.8
N[C@H](CC(=O)O)C(=O)O [D-Aspartic acid]	44.9
N[C@H](CCC(=O)O)C(=O)O [D-Glutamic acid]	45
NCCCC[C@@H](N)C(=O)O [D-Lysine]	44.3

same assay, conditions: Biolog plate: PM04A; compound stock concentration: 10-20 mM, 2 uL in 10 uL reaction

Compound	protein melting temperature
CCSCCC(N)C(=O)O (racemic) [DL-Ethionine]	43.9
NC(=O)CCCCC1CCSS1 (racemic) [DL-Lipoamide]	44.4
O=P(O)(O)OC[C@H](O)CO (racemic) [DL-a-Glycerol Phosphate]	44.4
CSCCC(NC(C)=O)C(=O)O (racemic) [N-Acetyl-D,L-Methionine]	43.7
OC[C@H]1O[C@@H](S)[C@H](O)[C@@H](O)[C@@H]1O [1-Thio-b-D-Glucose]	44.5
NCCP(=O)(O)O [2-Aminoethyl Phosphonic acid]	43.6
O=S(=O)(O)CCO [2-Hydroxyethane Sulfonic acid]	44.6
O=C(O)[C@H](O)[C@@H](O)[C@H](O)[C@H](O)COP(=O)(O)O [6-Phospho-Gluconic acid]	43.6
Nc1ncnc2c1ncn2[C@@H]1O[C@H](CO)[C@@H](O)[C@H]1OP(=O)(O)O [Adenosine 2`-Monophosphate]	43.8
Nc1ncnc2c1ncn2[C@@H]1O[C@@H]2COP(=O)(O)O[C@H]2[C@H]1O [Adenosine 3`,5`-Cyclic Monophosphate]	43.9
Nc1ncnc2c1ncn2[C@@H]1O[C@H](CO)[C@@H](OP(=O)(O)O)[C@H]1O [Adenosine 3`-Monophosphate]	44.2
Nc1ncnc2c1ncn2[C@@H]1O[C@H](COP(=O)(O)O)[C@@H](O)[C@H]1O [Adenosine 5`-Monophosphate]	43.9
CCCCS(=O)(=O)O [Butane Sulfonic acid]	44.4
NC(=O)OP(=O)(O)O [Carbamyl Phosphate]	44.7
N[C@@H](CS)C(=O)NCC(=O)O [Cys-Gly]	42.9
NCCS [Cysteamine]	42.8
Nc1ccn([C@@H]2O[C@H](CO)[C@@H](O)[C@H]2OP(=O)(O)O)c(=O)n1 [Cytidine 2`-Monophosphate]	43.7
Nc1ccn([C@@H]2O[C@H](CO)[C@@H](OP(=O)(O)O)[C@H]2O)c(=O)n1 [Cytidine 3`-Monophosphate]	45.4
O=C(O)C(CO)OP(=O)(O)O [D-2-Phospho-Glyceric acid]	44.1
O=C(O)C(O)COP(=O)(O)O [D-3-Phospho-Glyceric acid]	44.9
N[C@@H]1[C@@H](O)[C@H](O)[C@@H](COP(=O)(O)O)O[C@@H]1O [D-Glucosamine-6-Phosphate]	44.1
O=C[C@H](O)[C@@H](O)[C@H](O)[C@H](O)COP(=O)(O)O [D-Glucose-6-Phosphate]	43.8

same assay, conditions: Biolog plate: PM05; compound stock concentration: 10-20 mM, 2 uL in 10 uL reaction

Compound	protein melting temperature
C[N+](C)(C)CC(O)CC(=O)[O-] (racemic) [DL-Carnitine]	43.7
CC1(O)CCOC(=O)C1 (racemic) [DL-Mevalonic acid Lactone]	43.8
Nc1ncnc2c1ncn2[C@H]1C[C@H](O)[C@@H](CO)O1 [2`-Deoxyadenosine]	44
Nc1ccn([C@H]2C[C@H](O)[C@@H](CO)O2)c(=O)n1 [2`-Deoxycytidine]	44.3
Nc1nc2c(ncn2[C@H]2C[C@H](O)[C@@H](CO)O2)c(=O)[nH]1 [2`-Deoxyguanosine]	43.7
O=c1[nH]cnc2c1ncn2[C@H]1C[C@H](O)[C@@H](CO)O1 [2`-Deoxyinosine]	43.9
O=c1ccn([C@H]2C[C@H](O)[C@@H](CO)O2)c(=O)[nH]1 [2`-Deoxyuridine]	44.4
NC(=O)c1[nH]cnc1N [(5) 4-Amino-Imidazole-4(5)-Carboxamide]	43.7
Nc1[nH]cnc2ncnc1-2 [Adenine]	44.1
Nc1ncnc2c1ncn2[C@@H]1O[C@@H]2COP(=O)(O)O[C@H]2[C@H]1O [Adenosine 3`,5`-Cyclic Monophosphate]	44.4
Nc1ncnc2c1ncn2[C@@H]1O[C@H](CO)[C@@H](O)[C@H]1O [Adenosine]	44.1
C[N+](C)(C)CCO [Choline]	43.1
Nc1ccn([C@@H]2O[C@H](CO)[C@@H](O)[C@H]2O)c(=O)n1 [Cytidine]	43.9
Nc1cc[nH]c(=O)n1 [Cytosine]	44.3
C[C@@H](N)C(=O)O [D-Alanine]	44
N[C@H](CC(=O)O)C(=O)O [D-Aspartic acid]	44.4
O=C(O)CCCC[C@@H]1SC[C@@H]2NC(=O)N[C@@H]21 [D-Biotin]	44.5
N[C@H](CCC(=O)O)C(=O)O [D-Glutamic acid]	44.8
